Measured values as given in US20250057883A1, “CONTROLLABLE STIMULATION OF GENETICALLY ENGINEERED LYMPHOCYTES FOR THE TREATMENT OF CANCER” (THE TRUSTEES OF THE UNIVERSITY OF PENNSYLVANIA, priority 2021, published 2025).
Entries after “also recorded” stand apart in the source; their conditions may differ. One block for each molecule: values may come before it.

What was measured:
[1] = tested on: T cells expressing TPOR; test: Stimulation of T cells expressing TPOR for 7 days, flow cytometry; format: cell-based, human; settings: 0.1 μg/ml; for TPOR fraction after addition: enriched from 12.9%, FIG. 4 bottom panel
Method: (§1) FIG. 3: T cells transduced to express (i) the thrombopoietin receptor (TPOR) or (ii) the GCF receptor with a deletion at aa 715 (GCSFRd715) are active and can drive T cell proliferation via the non-canonical JAK2 pathway. T cells expressing GCSFRd715, TPOR, or the truncated NGFR as a control were stimulated for 7 days with IL-2/IL-7/IL-15 (all at 5 ng/ml; denoted as CK; positive control condition), 0.1 μg/ml recombinant thrombopoietin (TPO), 0.1 μg/ml TPO agonist eltrombopag (EP), or 0.1 μg/ml GCSF. Cell number (top) or percent transgenic cells (bottom) were quantified using flow cytometry at 7 days.
(§2) FIG. 4: Exemplary flow cytometry plots showing that exposure of transgenic cytokine receptor transduced cells to the cognate cytokine (i.e. GCSFRd715 to GCSF; TPOR to TPO or EP) leads to enrichment of CAR expressing cells at 7 days. Addition of GCSF enriched the GCSRFd715 transgenic cell fraction from 15.6% to 64.9% (top panel). Addition of TPO enriched the TPOR fraction from 12.9% to 82% and addition of EP enriched the TPOR fraction from 12.9% to 55.9% (bottom panel).
(§3) Healthy donor T cells were transduced to express (i) the thrombopoietin receptor (TPOR) or (ii) the GCF receptor with a deletion at aa 715 (GCSFRd715). T cells expressing GCSFRd715, TPOR, or the truncated NGFR as a control were stimulated for 7 days with IL-2/IL-7/IL-15 (all at 5 ng/ml; denoted as CK; positive control condition), 0.1 μg/ml recombinant thrombopoietin (TPO), 0.1 μg/ml TPO agonist eltrombopag (EP), or 0.1 μg/ml GCSF. Cell number (FIG. 3, top) or percent transgenic cells (FIG. 3, bottom) were quantified using flow cytometry at 7 days.

[2] = biological target: GCF receptor with a deletion at aa 715 (GCSFRd715) (UniProt Q99062); test: cell-based or functional assay
[3] = tested on: Human T cells; test: T cell expansion after MV pseudotyped lentiviral transduction with mbIL15; format: cell-based
Excerpt: FIGS. 1A-1E: Transgenic IL15 and IL15Ra-IL15 expression to enhances T cell proliferation. Human T cells were transduced with a measles virus (MV) pseudotyped lentiviral vector redirected specifically against human CD4, encoding the NGFR reporter alone (“no IL15 construct”), soluble IL15 along with the reporter, or membrane-bound IL15 along with the reporter. Transduction is shown in FIG. 1B, where the transgene is detected using a co-expressed reporter molecule (tNGFR). Quantification of soluble IL15 is depicted in FIG. 1C. No additional cytokine or stimulation signals were provided to the cells. Tcells express transgenic IL15 and IL15Ra-IL15. […].
IL15 is a homeostatic cytokine that is required for the maintenance of CD8+ memory Tcells and NK cells, and promotes anti-tumor activity. IL15 signals through the IL15 receptor which is composed of a specific alpha chain (IL15Rα or IL15Ra) along with the shared IL2Rb and common gamma chain. Previous work has shown that a membrane bound version of IL15 (mbIL15) can be created by fusing IL15 directly to IL15Rα via a flexible linker that promotes IL15 signaling to the expressing cell (PMID: 27849617, US 2016/0158285 A1) (SEQ ID NO: 1,see Table 1). Herein, it was shown that incorporating mbIL15 in the lentiviral transfer genome increases CAR-T cell numbers 10-fold in vitro (FIGS. 1A-1D). […]

[4] = biological target: thrombopoietin receptor (TPOR) (UniProt P40238); test: cell-based or functional assay
[5] = tested on: T cells expressing the truncated NGFR; test: Stimulation of negative control T cells (truncated NGFR) for 7 days, flow cytometry; format: cell-based, human; settings: 0.1 μg/ml, FIG. 3 top
Method: as §1, §3

[6] = tested on: STAT3 and STAT5; test: Phosphorylation of STAT3 and STAT5 in TPOR expressing T cells, flow cytometry; format: cell-based, human; settings: 0.1 μg/ml, 24 hours
Method: (§4) FIG. 5: TPOR stimulation leads to activation of STAT3 and STAT5. Healthy donor Tcells expressing TPOR or untransduced control T cells were stimulated for 24 hours with 5 ng/ml IL-2/IL-7/IL-15 (CK), 0.1 μg/ml TPO or 0.1 μg/ml Eltrombopag (EP). Following stimulation cells were fixed and the phosphorylation of STAT3 and STAT5 quantified using flow cytometry.
as §4, with “TPOR” for “FIG. 5: TPOR”, “stimulation led” for “stimulation leads”, “and STAT5 (FIG. 5).” for “and STAT5.”, “donor T cells” for “donor Tcells”, “μg/ml TPO,” for “μg/ml TPO”

[7] = tested on: T cells transduced with reporter+TPO-R; test: Expansion of TPO-R transduced T cells in vitro; format: cell-based, human; settings: transduced using the MV pseudotyped lentivector; FIG. 2D
Excerpt: FIGS. 2A-2D: Transgenic TPO-R enables controllable T cell expansion. T cells were transduced with the reporter NGFR, or with reporter+the thrombopoietin receptor (TPOR) and stimulated with eltrombopag, a specific small molecule agonist of TPOR, in vitro. FIG. 2A: Cell number is shown to increase only in the presence of the TPOR agonist. […] FIG. 2C: All cells that express the reporter (tNGFR) also express the TPO receptor.
Recombinant erythropoietin (Epo) and G-CSF are commercially approved for the treatment for anemia of chronic kidney disease, and for chemotherapy-related neutropenia, respectively. Clinical development of a recombinant thrombopoietin (TPO) was superseded by two TPO receptor (TPO-R, also known as c-Mpl) peptidomimetic drugs that are now approved for the treatment of immune thrombocytopenic purpura (romiplostim, and eltrombopag). […] Results of the TPO-R experiments were recapitulated herein (FIGS. 2A-2D). T cells were transduced with the reporter NGFR, or with reporter+TPO-R and stimulated with eltrombopag, a specific small molecule agonist of TPOR, in vitro. […] In FIG. 2C, it is shown that there is a 1:1 expression of the reporter NGFR with the TPO receptor after 12 days of eltrombopag treatment.

[8] = biological target: T1, TPO-R (Homo sapiens, UniProt P40238); settings: CART cells transduced with TPO-R; cited from earlier work
T1 construct: host or cells: CAR T cells transduced with TPO-R by other groups
T1 sequence (P40238 26-635): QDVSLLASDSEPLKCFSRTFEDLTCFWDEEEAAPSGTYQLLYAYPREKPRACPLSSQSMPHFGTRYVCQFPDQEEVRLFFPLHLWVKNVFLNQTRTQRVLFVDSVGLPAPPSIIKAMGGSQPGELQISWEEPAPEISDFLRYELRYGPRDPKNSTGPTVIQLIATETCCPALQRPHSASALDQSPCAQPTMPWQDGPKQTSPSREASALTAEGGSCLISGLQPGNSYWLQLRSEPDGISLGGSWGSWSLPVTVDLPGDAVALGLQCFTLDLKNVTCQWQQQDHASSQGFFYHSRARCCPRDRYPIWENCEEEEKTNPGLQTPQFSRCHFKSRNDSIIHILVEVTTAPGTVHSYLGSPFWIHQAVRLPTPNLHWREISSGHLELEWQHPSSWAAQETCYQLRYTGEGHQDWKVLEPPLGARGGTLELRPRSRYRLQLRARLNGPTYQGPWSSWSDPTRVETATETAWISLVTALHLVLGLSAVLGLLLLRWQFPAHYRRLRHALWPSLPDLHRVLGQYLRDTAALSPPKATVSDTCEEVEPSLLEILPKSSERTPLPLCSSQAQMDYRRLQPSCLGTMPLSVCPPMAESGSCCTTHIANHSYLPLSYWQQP

[9] = biological target: T2, interleukin-6 receptor (IL-6R) (Homo sapiens, UniProt P08887); settings: following CAR T-cell infusion; cited from earlier work
T2 construct: endogenous in cells; host or cells: subjects with cytokine release syndrome (in vivo)
T2 sequence (P08887 20-468): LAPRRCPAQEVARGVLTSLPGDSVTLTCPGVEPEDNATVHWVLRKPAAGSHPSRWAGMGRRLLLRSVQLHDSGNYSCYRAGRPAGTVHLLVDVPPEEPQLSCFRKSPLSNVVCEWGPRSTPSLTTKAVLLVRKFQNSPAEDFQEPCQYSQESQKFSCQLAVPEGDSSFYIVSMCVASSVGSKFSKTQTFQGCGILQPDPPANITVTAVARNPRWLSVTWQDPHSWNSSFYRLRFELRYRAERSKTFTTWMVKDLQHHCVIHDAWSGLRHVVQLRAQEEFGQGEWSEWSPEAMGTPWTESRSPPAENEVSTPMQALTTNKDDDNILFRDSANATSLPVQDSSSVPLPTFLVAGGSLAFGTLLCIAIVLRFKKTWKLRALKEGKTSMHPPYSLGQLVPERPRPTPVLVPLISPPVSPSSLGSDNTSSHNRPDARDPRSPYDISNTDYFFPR

[10] = tested on: T cells expressing GCSFRd715; test: Stimulation of T cells expressing GCSFRd715 for 7 days, flow cytometry; format: cell-based, human
Method: as §1, §2, §3

GCF receptor with a deletion at aa 715 (GCSFRd715), sequence (Q99062 25-715 limits assumed, stated change not applied): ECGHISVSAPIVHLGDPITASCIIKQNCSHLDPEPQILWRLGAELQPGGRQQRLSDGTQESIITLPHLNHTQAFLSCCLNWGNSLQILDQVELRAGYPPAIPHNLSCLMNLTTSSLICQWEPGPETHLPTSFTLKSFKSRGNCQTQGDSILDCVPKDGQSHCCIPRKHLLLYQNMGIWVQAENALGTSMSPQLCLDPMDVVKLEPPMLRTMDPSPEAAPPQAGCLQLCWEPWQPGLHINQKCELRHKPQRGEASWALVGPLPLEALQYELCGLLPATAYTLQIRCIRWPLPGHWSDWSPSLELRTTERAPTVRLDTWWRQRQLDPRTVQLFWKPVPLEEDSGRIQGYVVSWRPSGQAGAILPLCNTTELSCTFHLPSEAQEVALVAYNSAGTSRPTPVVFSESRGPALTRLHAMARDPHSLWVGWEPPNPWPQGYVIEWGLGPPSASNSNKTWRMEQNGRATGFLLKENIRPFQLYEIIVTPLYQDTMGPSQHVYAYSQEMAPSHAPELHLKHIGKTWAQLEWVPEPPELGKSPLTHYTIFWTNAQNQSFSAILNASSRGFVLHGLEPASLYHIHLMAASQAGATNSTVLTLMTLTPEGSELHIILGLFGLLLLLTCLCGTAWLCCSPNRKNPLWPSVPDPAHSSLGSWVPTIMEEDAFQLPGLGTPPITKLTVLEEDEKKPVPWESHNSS

Molecule: CC1=NN(c2ccc(C)c(C)c2)C(=O)/C1=N\Nc1cccc(-c2cccc(C(=O)O)c2)c1O [EP, eltrombopag, reference compound]
TPOR fraction after addition [1]: 55.9%

transgenic cell fraction after 7 days (flow cytometry) [2]: 64.9%
Molecule: Granulocyte Colony Stimulating Factor (G-CSF) (from UniProt P09919 31-204) (ligand)

Molecule: mbIL15: membrane bound version of IL15: IL15 fused directly to IL15Rα via a flexible linker (SEQ ID NO: 1)
increase of CAR-T cell numbers ([3]; in vitro, mbIL15 in the lentiviral transfer genome): 10 fold
cell number (expansion) ([3]; no additional cytokine or stimulation signals, FIG. 1D): superior expansion

transgenic cell fraction after 7 days (flow cytometry) [4]: 82%
Molecule: recombinant thrombopoietin (TPO) (from UniProt P40225 22-353) (ligand)

Molecule: thrombopoietin [TPO]
TPOR fraction after addition [1]: 82%
response to stimulation (cell number) ([1]; TPOR cells, FIG. 3 top): responded
response to stimulation (cell number) [5]: did not respond
phosphorylation of STAT3 and STAT5 [6]: leads to STAT5 and STAT3 phosphorylation; also recorded: lead to the expected STAT5 and STAT3 phosphorylation
expansion of non-activated (resting) cells [7]: led to expansion; also recorded: expand selectively
proliferation and anti-tumor functions [8]: superior proliferation and anti-tumor functions

Molecule: tocilizumab: humanized monoclonal antibody against the interleukin-6 receptor (IL-6R)
reversal of CRS [9]: near-immediate reversal of CRS

B1: GCSF: Granulocyte Colony Stimulating Factor, cognate cytokine of GCSFRd715 (protein)
chain: TPLGPASSLPQSFLLKCLEQVRKIQGDGAALQEKLCATYKLCHPEELVLLGHSLGIPWAPLSSCPSQALQLAGCLSQLHSGLFLYQGLLQALEGISPELGPTLDTLQLDVADFATTIWQQMEELGMAPALQPTQGAMPAFASAFQRRAGGVLVASHLQSFLEVSYRVLRHLAQP
GCSFRd715 transgenic cell fraction after addition ([10]; 0.1 μg/ml, enriched from 15.6%, FIG. 4 top panel): 64.9%
response to stimulation (cell number) ([10]; GCSFRd715 cells, 0.1 μg/ml, FIG. 3 top): responded
relative enrichment of transgenic cells (percent transgenic cells) ([10]; GCSFRd715 cells, FIG. 3 bottom): Relative enrichment
response to stimulation (cell number) [5]: did not respond
